Consider three compounds from PMC5542777 (Bioorganic & medicinal chemistry letters, 2017).

By Kp is commonly meant tissue or fluid exposure divided by exposure in the circulation.

A short description of series [1]: Brain penetration in mice. The following applies: for brain permeability / brain penetration: 5 mg/kg IP; for Kp at 60 min: mouse, brain and plasma, ip. Format: in vivo.
A short description of series [2]: Oral pharmacokinetics in mice. The conditions noted are these: oral gavage 50 mg/kg. Format: in vivo.

As to `Clc1cc(Br)cc(CN[C@H]2CCCN(c3nc4nc(Cl)ccc4[nH]3)C2)c1` [Compound 5b], the “brain permeability / brain penetration” value in series [1] (mice) is given as “poor”. Further, the brain levels entry in series [1] (mice, 60 min after IP injection, 5 mg/kg) is listed as “undetectable”.
In series [1] (5 mg/kg), `CCOc1c(Br)cc(Br)cc1CN[C@H]1CCCN(c2nc3nc(Cl)ccc3[nH]2)C1` [Compound 5p] returned a concentration ratio (Kp) at 60 min of 0.044 ± 0.006.
On to `CN(CCN[C@@H]1CCNc2c(Cl)cc(Cl)cc21)c1nc2nc(Cl)ccc2[nH]1` [Compound 13], for which, in series [2], the “plasma exposure” value is “low plasma exposure”. Also, the “brain permeability / brain penetration” value in series [1] (mice) was “moderately good brain penetration”. The compound further displayed a Kp at 60 min in series [1] (5 mg/kg) of 0.191 ± 0.075.
